Laboratory results from patent US10106538B2, “Inhibitors of protein kinases” (PRINCETON DRUG DISCOVERY INC, priority 2015, dated 2018).

How the values were obtained:
Assay in all cases: Off-chip Mobility Shift Assay (MSA) kinase inhibition
Type in all cases: biochemical
MST2 = target: T1, MST2 (Homo sapiens, UniProt Q13188)
T1 construct: purchased Carna Biosciences
T1 sequence (Q13188 1-491): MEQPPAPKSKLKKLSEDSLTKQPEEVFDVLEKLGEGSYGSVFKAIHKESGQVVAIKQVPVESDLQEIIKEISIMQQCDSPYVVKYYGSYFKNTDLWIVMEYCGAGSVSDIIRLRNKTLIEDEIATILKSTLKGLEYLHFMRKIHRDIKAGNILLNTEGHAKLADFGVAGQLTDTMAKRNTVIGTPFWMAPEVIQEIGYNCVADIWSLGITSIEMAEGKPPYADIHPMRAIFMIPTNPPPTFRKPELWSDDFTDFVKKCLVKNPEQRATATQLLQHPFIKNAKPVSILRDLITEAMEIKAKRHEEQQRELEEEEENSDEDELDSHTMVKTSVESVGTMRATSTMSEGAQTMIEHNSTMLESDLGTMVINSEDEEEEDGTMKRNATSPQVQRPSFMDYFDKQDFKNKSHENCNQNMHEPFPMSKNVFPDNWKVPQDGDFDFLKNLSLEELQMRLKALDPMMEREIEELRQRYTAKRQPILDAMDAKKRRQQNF
Method: (§1) Off-chip Mobility Shift Assay (MSA) by Cama Biosciences, Inc (Natick, Mass.) a used for measuring the kinase activity and inhibition. • 1) The 5 μL of x4 compound solution, 5 μL of x4 Substrate/ATP/Metal solution, and 10 μL of x2 kinase solution were prepared with assay buffer (20 mM HEPES, 0.01% Triton X100, 2 mM DTT, pH 7.5) and mixed and incubated in a well of polypropylene 384 well microplate for 1 or 5 hour(s)* at room temperature. (*; depending on kinase) • 2) 70 μL of Termination Buffer (QuickScout Screening Assist A; Cama Biosciences) was added to the welt • 3) The reaction mixture was applied to LabChip system (Perkin Elmer), and the product and substrate peptide peaks were separated and quantitated. • 4) The kinase reaction was evaluated by the product ratio calculated from peak heights of product (P) and substrate (S) peptides (P/(P+S)). • 5) The reaction conditions were followed according to assay protocols of Ca n Biosciences, Inc (BMA 3F, 1-5-5 Minatojima-Minamimachi, Chuo-ku, Kobe 650-0047, Japan; www.carnabio.com). • 6 Data analysis: The readout value of reaction control (complete reaction mixture) was set as a 0% inhibition, and the readout value of background (Enzyme (−)) was set as a 100% inhibition, then the percent inhibition of each test solution was calculated, […]

skMLCK = target: T2, skMLCK (Homo sapiens, UniProt Q9H1R3); conditions: inhibitor concentration 1 μM
T2 construct: purchased Carna Biosciences
Method: as §1

DDR2 = target: T3, DDR2 (Homo sapiens, UniProt Q16832)
T3 construct: purchased Carna Biosciences
T3 sequence (Q16832 22-855): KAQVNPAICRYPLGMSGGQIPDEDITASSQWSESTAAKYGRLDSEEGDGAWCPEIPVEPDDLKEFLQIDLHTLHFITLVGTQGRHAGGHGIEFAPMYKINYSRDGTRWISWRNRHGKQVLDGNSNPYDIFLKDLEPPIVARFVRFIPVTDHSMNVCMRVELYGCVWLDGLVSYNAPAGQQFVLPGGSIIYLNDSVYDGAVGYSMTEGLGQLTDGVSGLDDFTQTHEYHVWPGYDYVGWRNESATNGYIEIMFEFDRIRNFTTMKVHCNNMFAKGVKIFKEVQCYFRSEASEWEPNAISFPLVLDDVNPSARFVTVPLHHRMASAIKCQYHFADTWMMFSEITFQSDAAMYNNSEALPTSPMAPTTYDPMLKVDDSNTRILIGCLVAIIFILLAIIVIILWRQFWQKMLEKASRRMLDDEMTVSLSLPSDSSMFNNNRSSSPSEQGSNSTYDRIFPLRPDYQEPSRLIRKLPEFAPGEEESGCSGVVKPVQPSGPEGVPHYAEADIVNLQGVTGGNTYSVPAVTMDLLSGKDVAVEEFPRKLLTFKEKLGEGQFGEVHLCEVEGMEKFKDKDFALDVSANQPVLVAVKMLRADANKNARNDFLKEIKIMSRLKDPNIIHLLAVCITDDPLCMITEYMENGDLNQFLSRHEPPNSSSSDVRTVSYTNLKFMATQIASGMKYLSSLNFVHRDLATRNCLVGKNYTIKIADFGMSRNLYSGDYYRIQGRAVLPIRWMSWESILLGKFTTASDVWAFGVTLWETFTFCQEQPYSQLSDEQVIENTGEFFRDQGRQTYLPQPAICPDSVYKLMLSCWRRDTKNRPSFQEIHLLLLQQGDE
Method: as §1

BLK = target: T4, BLK (Homo sapiens, UniProt P51451)
T4 construct: purchased Carna Biosciences
T4 sequence (P51451 whole entry): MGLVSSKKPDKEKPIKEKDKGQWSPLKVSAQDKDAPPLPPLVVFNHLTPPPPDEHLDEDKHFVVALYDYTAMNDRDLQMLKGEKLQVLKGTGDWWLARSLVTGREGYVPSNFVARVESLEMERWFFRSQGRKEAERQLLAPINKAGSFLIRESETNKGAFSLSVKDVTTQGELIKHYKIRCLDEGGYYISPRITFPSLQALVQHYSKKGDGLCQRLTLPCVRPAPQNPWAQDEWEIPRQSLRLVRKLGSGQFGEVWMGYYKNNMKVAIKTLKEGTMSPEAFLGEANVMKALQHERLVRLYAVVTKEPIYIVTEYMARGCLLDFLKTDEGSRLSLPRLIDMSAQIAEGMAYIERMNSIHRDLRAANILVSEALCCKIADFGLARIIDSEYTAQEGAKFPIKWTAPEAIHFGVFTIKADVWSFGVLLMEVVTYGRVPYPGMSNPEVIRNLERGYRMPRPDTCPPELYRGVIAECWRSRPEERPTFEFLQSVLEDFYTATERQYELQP
Method: as §1

MAP2K7 = target: T5, MAP2K7 (Homo sapiens, UniProt O14733); conditions: inhibitor concentration 1 μM
T5 construct: purchased Carna Biosciences
T5 sequence (O14733 whole entry): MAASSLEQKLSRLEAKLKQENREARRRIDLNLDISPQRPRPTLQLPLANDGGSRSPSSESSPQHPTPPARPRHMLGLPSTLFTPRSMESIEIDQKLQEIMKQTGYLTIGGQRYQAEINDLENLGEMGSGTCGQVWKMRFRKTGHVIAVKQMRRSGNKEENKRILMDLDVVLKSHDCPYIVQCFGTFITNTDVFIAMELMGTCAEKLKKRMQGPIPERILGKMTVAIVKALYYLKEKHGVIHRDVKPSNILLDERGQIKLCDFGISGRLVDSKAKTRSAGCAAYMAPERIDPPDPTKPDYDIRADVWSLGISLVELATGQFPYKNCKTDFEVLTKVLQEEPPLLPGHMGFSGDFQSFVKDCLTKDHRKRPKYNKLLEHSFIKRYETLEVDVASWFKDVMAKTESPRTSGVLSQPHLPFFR
Method: as §1

EPHA5 = target: T6, EPHA5 (Homo sapiens, UniProt P54756); conditions: inhibitor concentration 1 μM
T6 construct: purchased Carna Biosciences
T6 sequence (P54756 25-1037): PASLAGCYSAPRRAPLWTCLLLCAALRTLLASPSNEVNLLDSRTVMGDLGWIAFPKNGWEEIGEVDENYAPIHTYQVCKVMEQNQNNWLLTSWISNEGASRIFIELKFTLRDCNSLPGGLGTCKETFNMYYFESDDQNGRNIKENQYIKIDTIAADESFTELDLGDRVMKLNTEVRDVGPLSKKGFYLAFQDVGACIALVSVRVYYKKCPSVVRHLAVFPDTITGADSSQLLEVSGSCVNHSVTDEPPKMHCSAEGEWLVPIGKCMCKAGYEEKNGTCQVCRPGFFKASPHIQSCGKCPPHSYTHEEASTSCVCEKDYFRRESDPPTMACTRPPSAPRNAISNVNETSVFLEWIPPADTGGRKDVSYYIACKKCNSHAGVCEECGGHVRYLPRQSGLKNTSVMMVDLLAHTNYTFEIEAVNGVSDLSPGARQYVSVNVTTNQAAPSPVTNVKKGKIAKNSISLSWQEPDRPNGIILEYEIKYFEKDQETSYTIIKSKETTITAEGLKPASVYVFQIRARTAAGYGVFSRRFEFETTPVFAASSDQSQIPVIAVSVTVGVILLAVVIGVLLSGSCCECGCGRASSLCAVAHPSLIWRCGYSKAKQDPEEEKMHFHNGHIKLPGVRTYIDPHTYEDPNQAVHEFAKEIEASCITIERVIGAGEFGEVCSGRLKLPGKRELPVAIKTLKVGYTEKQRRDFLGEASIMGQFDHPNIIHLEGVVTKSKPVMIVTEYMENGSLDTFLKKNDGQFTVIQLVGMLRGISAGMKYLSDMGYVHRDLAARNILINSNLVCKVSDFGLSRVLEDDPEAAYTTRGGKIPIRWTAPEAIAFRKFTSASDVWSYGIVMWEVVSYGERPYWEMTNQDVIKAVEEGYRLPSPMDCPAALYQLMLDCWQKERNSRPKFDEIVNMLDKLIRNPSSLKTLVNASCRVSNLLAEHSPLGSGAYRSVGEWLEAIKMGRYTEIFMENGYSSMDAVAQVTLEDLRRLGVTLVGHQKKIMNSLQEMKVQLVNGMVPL
Method: as §1

KIT(D816E) = target: T7, KIT(D816E) (Homo sapiens, UniProt P10721, D816E); conditions: inhibitor concentration 1 μM
T7 construct: purchased Carna Biosciences
T7 sequence (P10721 26-976 D816E): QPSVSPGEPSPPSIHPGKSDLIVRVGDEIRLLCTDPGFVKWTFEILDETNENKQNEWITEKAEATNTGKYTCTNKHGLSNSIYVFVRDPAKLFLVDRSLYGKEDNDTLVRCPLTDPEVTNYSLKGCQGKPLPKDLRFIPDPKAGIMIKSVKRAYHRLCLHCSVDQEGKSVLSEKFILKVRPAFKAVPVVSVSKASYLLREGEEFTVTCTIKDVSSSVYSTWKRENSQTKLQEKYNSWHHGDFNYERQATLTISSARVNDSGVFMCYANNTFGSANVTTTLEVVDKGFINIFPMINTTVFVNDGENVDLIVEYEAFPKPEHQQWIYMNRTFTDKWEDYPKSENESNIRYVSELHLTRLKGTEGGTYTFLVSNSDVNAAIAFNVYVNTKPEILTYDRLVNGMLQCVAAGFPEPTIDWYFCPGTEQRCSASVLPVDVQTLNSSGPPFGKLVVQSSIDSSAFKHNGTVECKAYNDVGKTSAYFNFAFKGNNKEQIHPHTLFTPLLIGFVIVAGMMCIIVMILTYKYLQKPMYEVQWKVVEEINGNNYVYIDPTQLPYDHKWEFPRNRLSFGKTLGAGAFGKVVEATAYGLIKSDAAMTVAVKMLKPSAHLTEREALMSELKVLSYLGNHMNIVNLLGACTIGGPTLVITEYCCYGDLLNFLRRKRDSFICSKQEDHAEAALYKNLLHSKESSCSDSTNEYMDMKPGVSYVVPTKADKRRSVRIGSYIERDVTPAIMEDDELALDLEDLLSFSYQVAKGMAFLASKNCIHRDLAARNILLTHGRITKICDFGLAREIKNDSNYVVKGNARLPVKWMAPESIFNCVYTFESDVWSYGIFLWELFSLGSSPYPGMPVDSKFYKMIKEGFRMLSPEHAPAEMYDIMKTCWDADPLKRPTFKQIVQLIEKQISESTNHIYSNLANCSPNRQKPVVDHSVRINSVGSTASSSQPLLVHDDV
Method: as §1

ROCK2 = target: T8, ROCK2 (Homo sapiens, UniProt O75116); conditions: inhibitor concentration 1 μM
T8 construct: purchased Carna Biosciences
Method: as §1

PKD3 = target: T9, PKD3 (Homo sapiens, UniProt O94806); conditions: inhibitor concentration 1 μM
T9 construct: purchased Carna Biosciences
Method: as §1

CSK = target: T10, CSK (Homo sapiens, UniProt P41240)
T10 construct: purchased Carna Biosciences
T10 sequence (P41240 whole entry): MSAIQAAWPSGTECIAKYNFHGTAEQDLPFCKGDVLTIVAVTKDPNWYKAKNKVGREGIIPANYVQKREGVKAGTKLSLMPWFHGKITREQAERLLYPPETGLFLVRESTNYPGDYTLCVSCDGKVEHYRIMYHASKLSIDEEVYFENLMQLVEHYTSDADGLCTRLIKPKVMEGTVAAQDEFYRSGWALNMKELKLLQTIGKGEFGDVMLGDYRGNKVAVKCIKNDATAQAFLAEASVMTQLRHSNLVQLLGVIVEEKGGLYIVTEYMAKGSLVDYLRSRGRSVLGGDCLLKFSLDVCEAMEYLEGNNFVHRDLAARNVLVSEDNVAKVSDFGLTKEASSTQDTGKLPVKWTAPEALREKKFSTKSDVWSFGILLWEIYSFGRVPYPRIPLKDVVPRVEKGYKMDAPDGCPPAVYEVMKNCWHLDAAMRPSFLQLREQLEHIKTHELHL
Method: as §1

FRK = target: T11, FRK (Homo sapiens, UniProt P42685); conditions: inhibitor concentration 1 μM
T11 construct: purchased Carna Biosciences
T11 sequence (P42685 whole entry): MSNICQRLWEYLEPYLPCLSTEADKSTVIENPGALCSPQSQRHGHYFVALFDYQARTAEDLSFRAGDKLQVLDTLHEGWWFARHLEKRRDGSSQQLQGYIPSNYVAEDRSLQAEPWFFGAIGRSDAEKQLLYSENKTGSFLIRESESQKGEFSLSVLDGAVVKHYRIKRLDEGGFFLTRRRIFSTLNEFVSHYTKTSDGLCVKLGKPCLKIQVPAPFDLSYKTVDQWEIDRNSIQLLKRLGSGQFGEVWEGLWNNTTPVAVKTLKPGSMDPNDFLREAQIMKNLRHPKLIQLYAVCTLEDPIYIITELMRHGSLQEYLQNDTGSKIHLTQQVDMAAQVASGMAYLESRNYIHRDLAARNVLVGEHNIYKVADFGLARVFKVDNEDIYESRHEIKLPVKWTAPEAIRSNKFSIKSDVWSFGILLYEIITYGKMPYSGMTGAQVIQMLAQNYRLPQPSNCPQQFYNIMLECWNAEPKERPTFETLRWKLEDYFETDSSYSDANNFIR
Method: as §1

MST3 = target: T12, MST3 (Homo sapiens, UniProt Q9Y6E0); conditions: inhibitor concentration 1 μM
T12 construct: purchased Carna Biosciences
Method: as §1

FGFR1 = target: T13, FGFR1 (Homo sapiens, UniProt P11362); conditions: inhibitor concentration 1 μM
T13 construct: purchased Carna Biosciences
T13 sequence (P11362 22-822): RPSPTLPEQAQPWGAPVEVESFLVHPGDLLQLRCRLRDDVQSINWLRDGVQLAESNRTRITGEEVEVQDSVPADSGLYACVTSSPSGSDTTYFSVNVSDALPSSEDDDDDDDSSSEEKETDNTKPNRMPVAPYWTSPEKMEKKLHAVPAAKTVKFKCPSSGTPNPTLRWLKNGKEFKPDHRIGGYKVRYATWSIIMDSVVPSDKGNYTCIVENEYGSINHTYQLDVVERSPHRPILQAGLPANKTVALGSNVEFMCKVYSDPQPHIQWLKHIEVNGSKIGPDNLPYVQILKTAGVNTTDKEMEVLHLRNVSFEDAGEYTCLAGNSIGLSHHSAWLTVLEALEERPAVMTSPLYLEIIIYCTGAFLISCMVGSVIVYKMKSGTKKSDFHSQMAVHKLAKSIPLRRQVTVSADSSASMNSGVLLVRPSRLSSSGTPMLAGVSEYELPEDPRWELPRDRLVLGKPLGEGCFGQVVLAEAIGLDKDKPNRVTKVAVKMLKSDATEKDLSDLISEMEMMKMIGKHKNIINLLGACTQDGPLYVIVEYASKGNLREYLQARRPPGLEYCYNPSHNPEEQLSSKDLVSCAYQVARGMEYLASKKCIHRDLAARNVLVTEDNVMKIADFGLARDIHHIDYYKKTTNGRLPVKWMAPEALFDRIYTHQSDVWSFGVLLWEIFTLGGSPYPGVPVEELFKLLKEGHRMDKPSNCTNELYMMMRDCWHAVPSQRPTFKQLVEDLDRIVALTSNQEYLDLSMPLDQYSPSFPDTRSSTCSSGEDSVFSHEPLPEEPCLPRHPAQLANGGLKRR
Method: as §1

KIT(D816Y) = target: T14, KIT(D816Y) (Homo sapiens, UniProt P10721, D816Y); conditions: inhibitor concentration 1 μM
T14 construct: purchased Carna Biosciences
T14 sequence (P10721 26-976 D816Y): as the sequence (P10721 26-976 D816E) above, with E791Y counted along it
Method: as §1

PKD2 = target: T15, PKD2 (Homo sapiens, UniProt Q9BZL6); conditions: inhibitor concentration 1 μM
T15 construct: purchased Carna Biosciences
Method: as §1

MAP2K3 = target: T16, MAP2K3 (Homo sapiens, UniProt P46734); conditions: inhibitor concentration 1 μM
T16 construct: purchased Carna Biosciences
T16 sequence (P46734 whole entry): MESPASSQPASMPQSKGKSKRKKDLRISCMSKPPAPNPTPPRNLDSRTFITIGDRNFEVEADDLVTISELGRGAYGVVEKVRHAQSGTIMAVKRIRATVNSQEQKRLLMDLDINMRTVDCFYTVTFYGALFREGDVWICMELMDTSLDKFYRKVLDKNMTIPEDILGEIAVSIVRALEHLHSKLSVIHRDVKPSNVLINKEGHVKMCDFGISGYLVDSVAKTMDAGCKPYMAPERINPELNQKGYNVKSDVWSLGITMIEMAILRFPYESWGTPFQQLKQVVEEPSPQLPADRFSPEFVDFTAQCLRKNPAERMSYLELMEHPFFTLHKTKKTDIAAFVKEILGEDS
Method: as §1

[1] = inhibitor concentration 0.01 μM

O=C(c1c(F)ccc(NS(=O)(=O)CCCO)c1F)c1c[nH]c2ncc(-c3ccc(Cl)cc3)cc12 [200-17, N-[3-[5-(4-chlorophenyl)-1H-pyrrolo[2,3-b]pyridine-3-carbonyl]-2,4-difluorophenyl]-3-hydroxypropane-1-sulfonamide]
< 50%: inhibition at 0.1 µM (MST2; inhibitor concentration 0.1 μM) | inhibition at 1 µM (MAP2K7) | inhibition at 1 µM (EPHA5) | inhibition at 1 µM (ROCK2) | inhibition at 1 µM (PKD3) | inhibition at 1 µM (MST3) | inhibition at 1 µM (KIT(D816Y)) | inhibition at 1 µM (PKD2)
< 30%: inhibition at 0.01 µM (MST2; [1]) | inhibition at 0.01 µM (DDR2; [1]) | inhibition at 0.01 µM (BLK; [1]) | inhibition at 0.01 µM (CSK; [1])
> 50%: inhibition at 1 µM (MST2; inhibitor concentration 1 μM) | inhibition at 1 µM (skMLCK) | inhibition at 0.1 µM (DDR2; inhibitor concentration 0.1 μM) | inhibition at 1 µM (DDR2; inhibitor concentration 1 μM) | inhibition at 0.1 µM (BLK; inhibitor concentration 0.1 μM) | inhibition at 1 µM (BLK; inhibitor concentration 1 μM) | inhibition at 1 µM (KIT(D816E)) | inhibition at 0.1 µM (CSK; inhibitor concentration 0.1 μM) | inhibition at 1 µM (CSK; inhibitor concentration 1 μM) | inhibition at 1 µM (FRK) | inhibition at 1 µM (FGFR1) | inhibition at 1 µM (MAP2K3)
